How the values were obtained:
Type in all cases: cell-based
[1] = system: Pseudoxanthomonas taiwanensis biofilms; test: Prevention of biofilm formation, 96-microwell plate with peg lids, Crystal Violet staining; conditions: for Biofilm quantity after 48 h contact time, Abs. at 595 nm / Biofilm reduction after 48 h contact time: SPW, 45° C., 150 rpm
Description: (§1) Pure cultures of Meiothermus silvanus, a microbe species commonly found in paper machine biofilms (Ekman J, Journal of Industrial Microbiology & Biotechnology 34:203-211) and Pseudoxanthomonas taiwanensis, another species commonly found in paper machine environments (Desjardins, E & Beaulieu, C, Journal of Industrial Microbiology & Biotechnology 30:141-145) were used to study the efficacy of various chemicals to prevent biofilm formation.
(§2) Biofilm tests were done in either synthetic commercial R2-broth (Lab M Ltd, UK) or fibre-containing synthetic paper machine water, SPW (prepared according to Peltola et al., J. Ind. Microbiol. Biotechnol. 2011, 38: 1719-1727) using 96-microwell plate wells with peg lids (Thermo Fischer Scientific Inc., USA). Plates were incubated at 45° C. with a rotary shaking (150 rpm) providing high flow in each well.
(§3) For experiments of preventing biofilm formation wells of 96-microwell plates with peg-lids were filled with R2-broth or SPW, inoculated with the pure bacterial cultures and treated with different amounts of chemical compounds to be tested. Peg-lid was put on. After 24 hours the wells were emptied and a fresh solution of pure culture containing SPW or R2 broth with different amounts of test chemicals were added to the wells and the original peg-lid was put back in place. After an additional 24 hours, i.e., 48 hours after starting the test, the wells were emptied, rinsed and the peg lid and wells were left to dry.
(§4) The amount of biofilm formed on the microwells, and peg surfaces was quantified with a staining solution by adding 200 μl of 1% Crystal Violet (Merck Millipore KGaA, Germany) in methanol to each well and placing the peg-lid back on. After 3 minutes the wells were emptied, and the wells and pegs were rinsed 3 times with tap water. The attached Crystal Violet was dissolved into ethanol and the absorbance at 595 nm was measured. The values shown in the following tables are average absorbance from 8 replicate wells and pegs.
(§5) All absorbance values in Examples 1-6 are given actual measured values. In calculation for biofilm reduction percentages it was taken in account that the SPW alone for 2 days without any bacterial inoculum gave a background value of 0.14.

[2] = system: Meiothermus silvanus biofilms; test: as above; conditions: for Biofilm quantity after 48 h contact time, Abs. at 595 nm / Biofilm reduction after 48 h contact time / Biofilm quantity after 48 h contact time in SPW, Abs. at 595 nm / Biofilm reduction after 48 h contact time in SPW: SPW; for Biofilm quantity after 48 h contact time, Abs. at 595 nm / Biofilm reduction after 48 h contact time: 45° C., 150 rpm
Description: as §1, §2, §3, §4, §5

[3] = system: Meiothermus silvanus biofilms; test: Removal of existing (preformed) biofilm, 96-microwell plate with peg lids, Crystal Violet staining; conditions: SPW, 45° C., 150 rpm; for Biofilm quantity after 24 h pre-growth and 24 h contact time, Abs. at 595 nm / Biofilm reduction after 24 h pre-growth and 24 h contact time: separated isomer
Description: as §1, §2
(§6) For experiments of removing already existing (preformed) biofilm wells of 96-microwell plates with peg-lids were filled with SPW, inoculated with the pure bacterial cultures. Biofilm was grown for 24 hours without addition of any chemical compound to be tested. In some experiments after 24 hours the procedure was repeated by emptying the wells and by addition of a fresh solution of SPW inoculated with pure bacterial culture, again without any test chemical compound. The original peg-lid was put back in place and biofilm was allowed to grow for additional 24 h, i.e., in total 48 h.
(§7) After 24 or 48 hours after starting the test, the wells were emptied and a fresh solution of SPW, inoculated with the pure bacterial cultures and with different amounts of chemical compounds to be tested were added and the original peg-lid was placed back in place. After an additional 2 or 24 hours the wells were emptied, rinsed and the peg lid and wells were left to dry.
as §4, §5

[4] = system: Pseudoxanthomonas taiwanensis biofilms; test: as above; conditions: SPW; for Biofilm quantity after 48 h pre-growth and 24 h contact time, Abs. at 595 nm / Biofilm reduction after 48 h pre-growth and 24 h contact time: 45° C., 150 rpm
Description: as §1, §2, §6, §7, §4, §5

[5] = separated isomer, dosage 0.1 mg/l active
[6] = separated isomer, dosage 0.2 mg/l active
[7] = Compound B dosage 0.25 mg/l active
[8] = Compound B dosage 1 mg/l active
[9] = Compound B dosage 3 mg/l active
[10] = Compound B dosage 10 mg/l active
[11] = Compound B dosage 0.1 mg/l active

Cc1ccc(S(=O)(=O)C=CC#N)cc1 [E-isomer of Compound A, 3-[(4-methylphenyl)sulfonyl]-2-propenenitrile]
Biofilm quantity after 48 h contact time, Abs. at 595 nm [1, 5]: 0.36
Biofilm reduction after 48 h contact time [1, 5]: 90.6%
Biofilm quantity after 48 h contact time, Abs. at 595 nm [1, 6]: 0.16
Biofilm reduction after 48 h contact time [1, 6]: 99.1%
Biofilm quantity after 48 h contact time, Abs. at 595 nm [2, 5]: 0.40
Biofilm reduction after 48 h contact time [2, 5]: 88.9%
Biofilm quantity after 48 h contact time, Abs. at 595 nm [2, 6]: 0.16
Biofilm reduction after 48 h contact time [2, 6]: 99.3%
Biofilm quantity after 24 h pre-growth and 24 h contact time, Abs. at 595 nm ([3]; dosage 0.2 mg/l active): 0.90
Biofilm reduction after 24 h pre-growth and 24 h contact time ([3]; dosage 0.2 mg/l active): 67.6%
Biofilm quantity after 24 h pre-growth and 24 h contact time, Abs. at 595 nm ([3]; dosage 1 mg/l active): 0.26
Biofilm reduction after 24 h pre-growth and 24 h contact time ([3]; dosage 1 mg/l active): 95.0%

Nc1ccc(S(=O)(=O)Nc2nccs2)cc1 [Compound B, 4-amino-N-2-thiazolyl-benzenesulphonamide]
Biofilm quantity after 48 h contact time, Abs. at 595 nm [1, 7]: 2.35
Biofilm reduction after 48 h contact time [1, 7]: 2.6%
Biofilm quantity after 48 h contact time, Abs. at 595 nm [1, 8]: 2.04
Biofilm reduction after 48 h contact time [1, 8]: 16.3%
Biofilm quantity after 48 h contact time, Abs. at 595 nm [1, 9]: 0.84
Biofilm reduction after 48 h contact time [1, 9]: 69.3%
Biofilm quantity after 48 h contact time, Abs. at 595 nm [1, 10]: 0.54
Biofilm reduction after 48 h contact time [1, 10]: 82.4%
Biofilm quantity after 48 h contact time, Abs. at 595 nm [2, 11]: 0.62
Biofilm reduction after 48 h contact time [2, 11]: 34.4%
Biofilm quantity after 48 h contact time, Abs. at 595 nm [2, 7]: 0.18
Biofilm reduction after 48 h contact time [2, 7]: 94.0%
Biofilm quantity after 48 h contact time, Abs. at 595 nm [2, 8]: 0.15
Biofilm reduction after 48 h contact time [2, 8]: 99.1%
Biofilm quantity after 48 h contact time, Abs. at 595 nm [2, 9]: 0.16
Biofilm reduction after 48 h contact time [2, 9]: 97.9%
Biofilm quantity after 48 h contact time, Abs. at 595 nm [2, 10]: 0.18
Biofilm reduction after 48 h contact time [2, 10]: 94.0%

Cc1ccc(S(=O)(=O)C=CC#N)cc1 [Z-isomer of Compound A, 3-[(4-methylphenyl)sulfonyl]-2-propenenitrile]
Biofilm quantity after 48 h contact time, Abs. at 595 nm [1, 5]: 0.16
Biofilm reduction after 48 h contact time [1, 5]: 99.3%
Biofilm quantity after 48 h contact time, Abs. at 595 nm [1, 6]: 0.16
Biofilm reduction after 48 h contact time [1, 6]: 99.3%
Biofilm quantity after 48 h contact time, Abs. at 595 nm [2, 5]: 0.16
Biofilm reduction after 48 h contact time [2, 5]: 99.1%
Biofilm quantity after 48 h contact time, Abs. at 595 nm [2, 6]: 0.15
Biofilm reduction after 48 h contact time [2, 6]: 99.4%
Biofilm quantity after 24 h pre-growth and 24 h contact time, Abs. at 595 nm ([3]; dosage 0.2 mg/l active): 0.81
Biofilm reduction after 24 h pre-growth and 24 h contact time ([3]; dosage 0.2 mg/l active): 71.3%
Biofilm quantity after 24 h pre-growth and 24 h contact time, Abs. at 595 nm ([3]; dosage 1 mg/l active): 0.27
Biofilm reduction after 24 h pre-growth and 24 h contact time ([3]; dosage 1 mg/l active): 94.6%

Gramicidin [reference compound]
Biofilm quantity after 48 h contact time in SPW, Abs at 595 nm ([1]; Gramicidin dosage 3 mg/l): 2.25
Biofilm reduction after 48 h contact time in SPW ([1]; Gramicidin dosage 3 mg/l): 5.4%
Biofilm quantity after 48 h contact time in SPW, Abs at 595 nm ([1]; Gramicidin dosage 10 mg/l): 2.41
Biofilm reduction after 48 h contact time in SPW ([1]; Gramicidin dosage 10 mg/l): −1.8%
Biofilm quantity after 48 h contact time in SPW, Abs at 595 nm ([1]; Gramicidin dosage 25 mg/l): 2.42
Biofilm reduction after 48 h contact time in SPW ([1]; Gramicidin dosage 25 mg/l): −2.2%
Biofilm quantity after 48 h contact time in SPW, Abs. at 595 nm ([2]; Gramicidin dosage 0.2 mg/l): 1.33
Biofilm reduction after 48 h contact time in SPW ([2]; Gramicidin dosage 0.2 mg/l): 2.5%
Biofilm quantity after 48 h contact time in SPW, Abs. at 595 nm ([2]; Gramicidin dosage 1 mg/l): 1.41
Biofilm reduction after 48 h contact time in SPW ([2]; Gramicidin dosage 1 mg/l): −4.1%
Biofilm quantity after 48 h contact time in SPW, Abs. at 595 nm ([2]; Gramicidin dosage 3 mg/l): 0.45
Biofilm reduction after 48 h contact time in SPW ([2]; Gramicidin dosage 3 mg/l): 74.6%
Biofilm quantity after 48 h contact time in SPW, Abs. at 595 nm ([2]; Gramicidin dosage 10 mg/l): 0.19
Biofilm reduction after 48 h contact time in SPW ([2]; Gramicidin dosage 10 mg/l): 95.9%

Cc1ccc(S(=O)(=O)C=CC#N)cc1 [Compound A, 3-[(4-methylphenyl)sulfonyl]-2-propenenitrile]
Biofilm quantity after 48 h contact time, Abs. at 595 nm ([1]; dosage 0.01 mg/l active): 1.42
Biofilm reduction after 48 h contact time ([1]; dosage 0.01 mg/l active): 4.5%
Biofilm quantity after 48 h contact time, Abs. at 595 nm ([1]; dosage 0.03 mg/l active): 1.26
Biofilm reduction after 48 h contact time ([1]; dosage 0.03 mg/l active): 16.4%
Biofilm quantity after 48 h contact time, Abs. at 595 nm ([1]; dosage 0.08 mg/l active): 0.88
Biofilm reduction after 48 h contact time ([1]; dosage 0.08 mg/l active): 44.8%
Biofilm quantity after 48 h contact time, Abs. at 595 nm ([1]; dosage 0.13 mg/l active): 0.55
Biofilm reduction after 48 h contact time ([1]; dosage 0.13 mg/l active): 69.4%
Biofilm quantity after 48 h contact time, Abs. at 595 nm ([1]; dosage 0.20 mg/l active): 0.39
Biofilm reduction after 48 h contact time ([1]; dosage 0.20 mg/l active): 81.3%
Biofilm quantity after 48 h contact time, Abs. at 595 nm ([2]; dosage 0.01 mg/l active): 0.80
Biofilm reduction after 48 h contact time ([2]; dosage 0.01 mg/l active): 21.4%
Biofilm quantity after 48 h contact time, Abs. at 595 nm ([2]; dosage 0.03 mg/l active): 0.75
Biofilm reduction after 48 h contact time ([2]; dosage 0.03 mg/l active): 27.4%
Biofilm quantity after 48 h contact time, Abs. at 595 nm ([2]; dosage 0.08 mg/l active): 0.58
Biofilm reduction after 48 h contact time ([2]; dosage 0.08 mg/l active): 47.6%
Biofilm quantity after 48 h contact time, Abs. at 595 nm ([2]; dosage 0.13 mg/l active): 0.22
Biofilm reduction after 48 h contact time ([2]; dosage 0.13 mg/l active): 90.5%
Biofilm quantity after 48 h contact time, Abs. at 595 nm ([2]; dosage 0.20 mg/l active): 0.15
Biofilm reduction after 48 h contact time ([2]; dosage 0.20 mg/l active): 98.8%
biofilm reduction effect ([2]; dosage of 0.13 mg/l active, synthetic paper machine water, high temperature, fibres present, high flow): over 90%
Biofilm quantity after 48 h pre-growth and 24 h contact time, Abs. at 595 nm ([4]; dosage 0.2 mg/l active): 1.73
Biofilm reduction after 48 h pre-growth and 24 h contact time ([4]; dosage 0.2 mg/l active): 32.2%
Biofilm quantity after 48 h pre-growth and 24 h contact time, Abs. at 595 nm ([4]; dosage 0.5 mg/l active): 0.13
Biofilm reduction after 48 h pre-growth and 24 h contact time ([4]; dosage 0.5 mg/l active): 100.2%
removal of already formed biofilm (in words) ([4]; single dosage of 0.5 mg/l active compound, 48-hour pre-growth, 24 hours after addition): removed all of the biofilm
Biofilm quantity after 48 h pre-growth and 2 h contact time, Abs. at 595 nm ([3]; dosage 0.5 mg/l active): 1.20
Biofilm reduction after 48 h pre-growth and 2 h contact time ([3]; dosage 0.5 mg/l active): 8.0%
Biofilm quantity after 48 h pre-growth and 2 h contact time, Abs. at 595 nm ([3]; dosage 1 mg/l active): 1.11
Biofilm reduction after 48 h pre-growth and 2 h contact time ([3]; dosage 1 mg/l active): 16.3%
Biofilm quantity after 48 h pre-growth and 2 h contact time, Abs. at 595 nm ([3]; dosage 2 mg/l active): 0.99
Biofilm reduction after 48 h pre-growth and 2 h contact time ([3]; dosage 2 mg/l active): 26.6%

N#CC(Br)(Br)C(N)=O [DBNPA, 2,2-dibromo-3-nitrilopropionamide, reference compound]
dosage required to reach same (over 90%) biofilm reduction efficacy ([2]; active compound, synthetic paper machine water, high temperature, fibres present, high flow): 1 mg/L
